The text below walks through data of PMC8003343 (Pharmaceuticals, 2021).

Data set [1] is described as follows: In vitro intrinsic clearance in human liver microsomes (HLM). It is filed as in vitro ADME. As to the method: (§1) Liver microsomes from Sprague Dawley rats (RLM), CD-1 mice (MLM), beagle dogs (DLM), Göttinger mini pigs (MPLM), rhesus monkeys (RMLM), and humans (HLM, specified total P450 content: 0.286 nmol/mg protein) were obtained from Thermo Fisher Scientific/Life Technologies (Darmstadt, Germany). Optimization of incubation conditions (microsomal protein concentration, substrate solvent, incubation buffer) has been carried out in a previous study. For assessment of intrinsic clearance (CLint), substrate (8 µM CBX, MCBX or CPFPX, stock solutions in DMSO) and microsomes (0.4 mg/mL RLM, MLM, DLM and MPLM, 2.0 mg/mL HLM and 0.04 mg/mL RMLM) were preincubated for 5 min at 37 °C in HEPES buffer (100 mM, pH 7.4) containing MgCl2 (3.3 mM). Enzymatic reactions were initiated by addition of preheated NADPH (1.3 mM) and were allowed to proceed for 30 min. Aliquots (100 µL) were sampled from the incubation mixture (500 µL total volume) at 0 and 30 min. An equal volume of a mixture of MeOH/MeCN (50:50, v/v, cooled to −20 °C) was added to terminate the reaction. After subsequent homogenization on a vortex mixer (1 min, 21 °C) and centrifugation (10 min, 20,000× g rcf, 21 °C), the supernatants (50 µL aliquots) were analyzed via HPLC-UV/VIS (Knauer smartline system equipped with a Rheodyne type 7125 sample injector and a 500 µL sample loop). Chromatographic conditions were as follows. Column: 4.6 mm × 250 mm Kromasil 100-5-C18 (AkzoNobel, Bohus, Sweden); eluent composition: MeCN/H2O/AcOH 48:52:0.2 (v/v/v); flow rate: 1 mL/min; detection wavelength: 275 nm. Microsomal assays were performed in quadruplicate.
(§2) Elimination rate constants (k) of CBX, MCBX, and CPFPX were derived via linear regression analysis of semi-logarithmic peak area vs. time plots.
(§3) In vitro half-life (t1/2) was calculated as:(1) t1/2=ln2/k
(§4) In vitro intrinsic clearance was calculated as follows:(2) Clint=ln2/t1/2[…] where c is the microsomal protein concentration. Since the main focus of the study was to compare CLint between species, but not between compounds, no correction for the microsomal unbound fraction was applied.

Data set [2] is described as follows: In vitro intrinsic clearance in rat liver microsomes (RLM). The data set is classed as in vitro ADME, Sprague Dawley rats. The following applies: microsomes from rat, mouse, mini pig, and rhesus. As to the method:
as §1, §2, §3, §4

Data set [3] is described as follows: In vitro intrinsic clearance in dog liver microsomes (DLM). It is filed as in vitro ADME, beagle dogs. As to the method: as §1, §2, §3, §4
Data set [4] is described as follows: Metabolite profiles in liver microsomes from various species (HPLC-UV/LCMS). The data set is classed as in vitro ADME, human, rat, mouse, dog, mini pig, rhesus monkey. The following applies: for species whose metabolite profile is most similar to the human metabolite profile: liver microsomes; for Species (liver microsomes in which the peak was found): h human, r rat, m mouse, d dog, mp mini pig, rh rhesus, brackets indicate minor peaks, 275 nm; for number of metabolites produced by microsomal metabolism: in the microsomes of the test species. As to the method:
Microsomal assays aimed at metabolite profiling were conducted according to the protocol described in Section 4.3.1, but with 10 µL substrate (CBX, MCBX, CPFPX) in a total incubation volume of 1 mL. In Table 6, microsomal protein concentrations and incubation times used in the individual assays are listed. Blank samples containing all matrix components but no substrate were included. Incubations were terminated by adding two volumens of a mixture of MeOH/MeCN (50:50, v/v, cooled to −20 °C). Samples were then vortexed (1 min, 21 °C), centrifuged (10 min, 20,000× g rcf, 21 °C), and evaporated to dryness using a centrifugal vacuum concentrator (Concentrator 5301, Eppendorf, Wesseling-Berzdorf, Germany) set to a temperature of 45 °C. Dried samples were reconstituted with 160 µL HPLC eluent (MeCN/H2O/AcOH 35:65:0.1 (v/v/v)) and centrifuged (3 min, 20,000× g rcf, 21 °C). Aliquots of the clear supernatant (25 µL) were subsequently injected into the HPLC system. Chromatographic parameters were the same as described in Section 4.3.1, except for the addition of a 3 mm NH2 guard column (OPTI-GUARD, Optimize Technologies Inc., Oregon City, OR, USA). For LCMS analyses, the UV-detector outlet was coupled to a mass spectrometer (MSQ PlusTM, Thermo Electron Corporation, San Jose, CA, USA) via an electrospray interface. LCMS parameters were as follows. Nebulizer M gas pressure: 6 bar; desolvation temperature: 500 °C; positive ion mode (ESI+); sprayer voltage: 3000 V; cone voltages: 50 V (unfragmented spectra) or 185 V (fragmented spectra), m/z range 1–800; scan time: 1 s. Mass spectra were analyzed using Xcalibur software (version 3.0).

A short description of data set [5]: In vitro intrinsic clearance in rhesus monkey liver microsomes (RMLM). The data set is classed as in vitro ADME, rhesus monkeys. Conditions: rhesus vs human liver microsomes; highest ratio among the three compounds. As to the method:
as §1, with “Aliquots (100 µL) were sampled from the incubation mixture (500 µL total volume) at 0 and 30 min. An equal volume of a mixture of MeOH/MeCN (50:50, v/v, cooled to −20 °C) was added to terminate the reaction.” left out, “Chromatographic conditions were as follows. Column: 4.6 mm × 250 mm Kromasil 100-5-C18 (AkzoNobel, Bohus, Sweden); eluent composition: MeCN/H2O/AcOH 48:52:0.2 (v/v/v); flow rate: 1 mL/min; detection wavelength: 275 nm. Microsomal assays were performed in quadruplicate.” left out
as §3
In vitro intrinsic clearance was calculated as follows:(2) Clint=ln2/t1/2×c where c is the microsomal protein concentration. […]

On the set-up of data set [6]: method as in PMID 1441590. The following applies: human microsomes from a single donor; cited from earlier work.
For data set [7] the following is noted: from [18F]CPFPX; cited from earlier work.
The conditions of data set [8]: from [18F]CPFPX; cited from earlier work. This is another data set of the same source.
For data set [9] the following is noted: rats and mice after [18F]CPFPX injection; cited from earlier work.
For data set [10] the following is noted: radiometabolite of [18F]CPFPX; cited from earlier work.
Data set [11] in a line: Enone metabolite formation in human liver microsomes. The data set is classed as in vitro ADME. Conditions: 6 at 4 µM, 1.0 mg/mL HLM, 150 min. As to the method:
(§5) In preliminary experiments, the potential enone precursors 5–8 (8 µM) were incubated with either RLM (0.4 mg/mL) or HLM (0.8 mg/mL) for up to 4 h according to the protocol given in Section 4.3.1. Multiple samples were taken during incubation and analyzed with regard to the presence of the enone metabolite 4 in the incubation mixture.
(§6) The time course of the formation of 4 from precursor 6 was monitored by incubation of 6 (4 µM) with either 1.0 mg/mL HLM for 150 min or 0.4 mg/mL RLM for 100 min according to the procedures described in Section 4.3.1. but with a prolonged centrifugation cycle (15 min) for protein precipitation. Chromatographic separation was performed on a Kromasil C18 column (see Section 4.3.1) equipped with a 3 mm NH2 guard column (OPTI-GUARD, Optimize Technologies Inc., Oregon City, OR, USA) using an eluent composed of MeCN/H2O/AcOH 45:55:0.1 (v/v/v). All other chromatographic parameters resembled those given above. Incubations were conducted in triplicate.

A short description of data set [12]: Enone metabolite formation in rat liver microsomes. The data set is classed as in vitro ADME. The following applies: 6 at 4 µM, 0.4 mg/mL RLM, 100 min. On the procedure:
as §5, §6

On to `CCCn1c(=O)c2[nH]c(C3CCC3)nc2n(CCCF)c1=O` [CBX, 8-Cyclobutyl-3-(3-fluoropropyl)-1-propylxanthine], for which the entries for the “rank order of CLint” value in data set [1], in data set [2] and in data set [3] were “CBX > CPFPX > MCBX”, “CPFPX > MCBX > CBX” and “CPFPX > MCBX ≈ CBX”, respectively. Also, in data set [4], the “species whose metabolite profile is most similar to the human metabolite profile” value was “rhesus monkey and mini pig”. Moreover, in [4] (substrate CBX), the “Species (liver microsomes in which the peak was found)” value is listed as “(h), r, m, d, (mp), rh”.
`CCCn1c(=O)c2nc(C3CCCC3)[nH]c2n(CCCF)c1=O` [CPFPX, 8-Cyclopentyl-3-(3-fluoropropyl)-1-propylxanthine]: the “rank order of CLint” value is reported as “CBX > CPFPX > MCBX” in data set [1], “CPFPX > MCBX > CBX” in data set [2] and “CPFPX > MCBX ≈ CBX” in [3]. Besides, the “CLint in rhesus microsomes relative to human microsomes (fold higher)” value in [5] is 134 fold. Also, the “number of metabolites produced by microsomal metabolism” value in [4] is given as “up to 12 metabolites”. For the same compound, in data set [4] (substrate CPFPX), the “Species (liver microsomes in which the peak was found)” value is on record as “h, r, m, d, mp, rh”.
Take `CCCn1c(=O)c2[nH]c(C3(C)CCC3)nc2n(CCCF)c1=O` [MCBX, 3-(3-Fluoropropyl)-8-(1-methylcyclobutyl)-1-propylxanthine]: the “rank order of CLint” value is reported as “CBX > CPFPX > MCBX” in data set [1], “CPFPX > MCBX > CBX” in data set [2] and “CPFPX > MCBX ≈ CBX” in data set [3]. Moreover, in data set [4], the “number of metabolites produced by microsomal metabolism” value is “up to 10 metabolites”. Also, the “species whose metabolite profile is most similar to the human metabolite profile” value in data set [4] is “Rodent”. In addition, the “Species (liver microsomes in which the peak was found)” value in data set [4] (substrate MCBX) is “h, r, m, d, mp, rh”.
Take `Cn1c(=O)c2c(ncn2C)n(C)c1=O` [caffeine]: in [6], the “rate of metabolism in hepatic microsomes, species comparison” value is listed as “considerably higher in hepatic microsomes from humans than in those from rats or monkeys”.
As for `CCCn1c(=O)c2[nH]c(C3=CC(=O)CC3)nc2n(CCCF)c1=O` [compound 4, 3-(3-Fluoropropyl)-8-(3-oxocyclopent-1-en-1-yl)-1-propylxanthine], in data set [4] (substrate CPFPX), the “species microsomes generating the enone metabolite from CPFPX” value was “exclusively in human and dog microsomes”; the “Species (liver microsomes in which the peak was found)” value is given as “h, d”. In addition, the “formation of the enone radiometabolite in human microsomes” value in data set [7] is on record as “extensive formation”. For the same compound, the “formation of the enone radiometabolite in microsomes from rats and mice” value in [8] is “almost no significant amounts could be detected”. Moreover, the “formation of the enone metabolite in vivo (plasma)” value in data set [9] is reported as “generated in vivo”. Also, in data set [10], the “blood–brain barrier penetration” value is listed as “does not penetrate the blood–brain barrier” and the “excretion from the body” value is reported as “slow excretion from the body”.
For the compound `CCCn1c(=O)c2[nH]c(C3=CCCC3)nc2n(CCCF)c1=O` [compound 6, 8-(Cyclopent-1-en-1-yl)-3-(3-fluoropropyl)-1-propylxanthine], the “metabolic fate (time course) in human liver microsomes” value in [11] is “biotransformation proceeds from 6 via 9 to 4”. The “metabolic fate (time course) in rat liver microsomes” value in [12] is on record as “oxidized to produce 9”.
Turning to `CCCn1c(=O)c2[nH]c(C3=CC(O)CC3)nc2n(CCCF)c1=O` (centres unmarked) [compound 9, 3-(3-fluoropropyl)-8-(3-hydroxycyclopent-1-en-1-yl)-1-propylxanthine], the “metabolic fate (time course) in human liver microsomes” value in data set [11] is “further metabolized to 4”. For the same compound, in [12], the “metabolic fate (time course) in rat liver microsomes” value is listed as “remained constant”.
